Measurements: patent publication US6372783B1, “Enantiomeric compounds for treatment of cardiac arrhythmias and methods of use” (Aryx Therapeutics, priority 1999, dated 2002)
Each block holds one compound with its values, some of them ahead of it.

Tests used:
Male Sprague-Dawley rats = test: Anti-arrhythmic activity in anesthetized rats (benzene/adrenaline challenge; VPB, heart rate, EKG intervals); format: in vivo, rat; conditions: for PR interval / QRS interval / QT interval / Heart rate (beats/minute) / Inhibition of tachycardia / Number of VPB / Inhibition of VPB: isolated enantiomer as compared to respective racemate; for PR interval / QRS interval / QT interval: EKG; for Heart rate (beats/minute) / Inhibition of tachycardia: adrenaline injection; for Number of VPB / Inhibition of VPB: benzene/adrenaline challenge; for Inhibition of VPB: 4 mg/kg i.v. then 12 mg/kg/h for 2 hours; for VPB-inhibiting activity at the end of the washout period: time 180 min; for inhibition of the formation of ventricular premature beats (VPB) during drug administration: whole period of drug administration (time 0 to 120 min); for protection against adrenaline-induced tachyarrhythmia / tachycardia (heart rate): drug administered time 0 to 120 minutes
Experimental: Anti-arrhythmic Activity in Anesthetized Rats.
Male Sprague-Dawley rats with body weights of 410±30 g (Harlan Sprague Dawley Inc., Indianapolis, Ind.), were anesthetized with sodium pentobarbital (50 mg/kg i.p.—Butler Co., Columbus, Ohio). The skin from the neck area was removed and the jugular veins on both sides were cleared of connective tissue. Both jugular veins and the left carotid artery were isolated, and the latter tied up cranially with a surgical silk (ETHICON 4-0, Ethicon Inc., Australia). A plastic catheter ([…] 19 ga, Vecton Dickinson, Sandy, Utah), filled with a solution containing 10% sodium heparin (Elkins-Sinn Inc., Cherry Hill, N.J.) in normal saline (100 U/ml sodium heparin), was introduced into the artery and fixed with surgical silk.
The catheter was connected to a pressure transducer (OHMEDA P23-XL, Ohmeda Medical Devices Division Inc., Madison, Wis.), filled with the same heparinized 0.9% NaCl solution, to register beat-to-beat arterial pressure. Needle electrodes were inserted s.c., and together with the pressure transducer, were joined to a GOULD TA 2000 recorder. Leads II, aVF and intraarterial blood pressure were monitored simultaneously throughout the experiments and recorded at certain intervals at 50 and 200 mm/sec paper speed.
The surgery was completed with an incision on the trachea where a short plastic tubing was placed and the animal was connected to a rodent-model ventilator (HARVARD Model 683, Harvard Apparatus, Inc., Holliston, Mass.). The animals were ventilated in a controlled way, depending on their spontaneous breathing frequency (55-75/min).
Drug administrations were carried out through i.v. catheters (TERUMO 24 GA*¾″, Terumo Medical Corp., Elkton, Md.) inserted into both jugular veins. The left side was used for drug infusions by means of a syringe pump (SAGE INSTRUMENTS, Model 341B, Orion Res. Inc., Boston, Mass.), and the right side was used for adrenaline injections. The experiments were started after at least 15 minutes of stabilization. Benzene/adrenaline challenges were performed as follows: the respirator inlet was connected to a 50-ml bubbler half-full with benzene (Fisher Scientific, Fair Lawn, N.J.) so that the inspired air was saturated with benzene vapor. The animal was ventilated with benzene vapor for two minutes. The tidal volume was typically 1 ml/100 g of animal. During the last 30 seconds of benzene ventilation, 10 μg/kg adrenaline solution (in 0.9% NaCl) was injected into the right jugular vein. […] These arrhythmias could be elicited repeatedly. After three control VTs (at −30, −20 and −10 minutes), the test compounds were injected slowly during 30 seconds at a dose of 4 mg/kg i.v., immediately followed by a slow infusion of 12 mg/kg/h for 2 hours. The flow rate during the infusion period was 1 ml/h.
There were 5 rats per test compound and each animal served as its own control. The ability of the different drugs to suppress arrhythmias was tested against repeated benzene/adrenaline challenges at 5, 15, 30,45, 60, 90, 120 (end of drug infusion), 135, 150, 165 and 180 minutes after the i.v. bolus injection. The amplitudes of the systolic arterial pressure and diastolic arterial pressure […] with the help of a pressure-amplitude calibration curve. Heart rate, number of ventricular complexes during the occurrence of VTs and VPBs, and certain ECG parameters (PR, QRS, QT durations and RR cycle lengths in msec) were also recorded and measured manually. At each time-point, 3-5 cycles were measured and the average values were entered into EXCEL Windows 97. The average and standard deviation for the five experimental animals per compound were calculated.

[1] = Half-life in human plasma in vitro; format: in vitro ADME; conditions: for half-life in human plasma: 37° C.
Experimental: Half-life in Human Plasma in Vitro.
Venous blood (60 ml) was collected in heparinized 1 5-ml Vacutainer® tubes from the forearm of five human volunteers. Each tube contained 1,000 units of heparin sodium salt. The blood was immediately centrifuged at 2,000 g for 10 minutes and the plasma was collected. Immediately after collection, the plasma was divided into 2-ml aliquots in borosilicate glass tubes (5-ml capacity) capped with a plastic stopper. The tubes were then equilibrated in a 37° C.-water bath for at least 15 minutes before the test samples were added.
Stock solutions were prepared by dissolving 25 μmoles (about 18 mg) of each of the test compounds in 10 ml of deionized water. To each of the glass tubes containing 2 ml of fresh plasma, equilibrated at 37° C., was added 40 μl of the stock solutions (one test compound per tube). The plasma/stock solutions were then mixed. Samples (250 μl) were collected at time 0 (immediately after mixing test compounds in plasma) and then at 30, 60, 90, 120, 180, 240, and 300 minutes. The test tubes were capped, to avoid concentration due to evaporation, and left in the 37° C. bath during the entire experiment. Each aliquot was immediately introduced into a 1.5-ml microfuge tube containing 20 μl of a 0.01% solution of diethyl paranitrophenylphosphate (paraoxon) in ethanol in order to inhibit esterase activity. The tubes were then capped and vortexed, then kept at −20° C. until analysis. The samples were thawed and mixed with 750 μl of a 0.1% solution of trifluoroacetic acid (TFA) in acetonitrile, vortexed for thorough mixing, and then centrifuged at 12,000 g for 15 minutes. The supernatant was collected for injection in the HPLC system.
The HPLC mobile phase consisted of acetonitrile and water containing 0.1% TFA and 400 mg/L benzyltriethylammoniumchloride (BTEAC) in the following proportions and flow rates: 85% acetonitrile and 15% water at 2.0 ml/min. The detection wavelength was set at 242 nm, and the injected volume was 100 μL. The HPLC peaks were recorded, and the integrated values were plotted against time using the SIGMAPLOT software version 4.0 for WINDOWS. The resulting curves were fitted to a first-order exponential decay equation from which hydrolysis half-lives were calculated.

[2] = benzene vapors and adrenaline challenge

SMILES: CC[C@H](C)OC(=O)Cc1oc2ccccc2c1C(=O)c1cc(I)c(OCCN(CC)CC)c(I)c1 [Compound S-2042, (S)-sec-Butyl2-[3-(3,5-diiodo-4-(2-diethylaminoethyloxy)benzoyl)]benzofurane-acetate]
effect on QT segment / interval of the EKG (Class-III properties), potency (Male Sprague-Dawley rats; anesthetized rats, comparison of the forms): most potent and the longest acting | PR interval (Male Sprague-Dawley rats; anesthetized rats): longer | QRS interval (Male Sprague-Dawley rats; anesthetized rats): longer | QT interval (Male Sprague-Dawley rats; anesthetized rats): longer | Heart rate (beats/minute) (Male Sprague-Dawley rats; anesthetized rats): lower | Inhibition of tachycardia (Male Sprague-Dawley rats; anesthetized rats): longer | Number of VPB (Male Sprague-Dawley rats; anesthetized rats): lower | Inhibition of VPB (Male Sprague-Dawley rats; anesthetized rats): longer | VPB-inhibiting activity at the end of the washout period (Male Sprague-Dawley rats): still retained part of its activity | inhibition of the formation of ventricular premature beats (VPB) during drug administration (Male Sprague-Dawley rats; [2]): totally inhibited

half-life in human plasma [1]: 11.7 h
SMILES: CCN(CC)CCOc1c(I)cc(C(=O)c2c(CC(=O)O[C@H](C)C(C)C)oc3ccccc23)cc1I [Compound R-2055, (R)-(3-Methyl)-2butyl 2-[3-(3,5-diiodo-4-(2-diethylaminoethyloxy)benzoyl)]benzo-furaneacetate]
PR interval (Male Sprague-Dawley rats; anesthetized rats): shorter | QRS interval (Male Sprague-Dawley rats; anesthetized rats): longer | QT interval (Male Sprague-Dawley rats; anesthetized rats): no change | Heart rate (beats/minute) (Male Sprague-Dawley rats; anesthetized rats): lower | Inhibition of tachycardia (Male Sprague-Dawley rats; anesthetized rats): longer | Number of VPB (Male Sprague-Dawley rats; anesthetized rats): lower | Inhibition of VPB (Male Sprague-Dawley rats; anesthetized rats): longer | VPB-inhibiting activity at the end of the washout period (Male Sprague-Dawley rats): still retained part of its activity | inhibition of the formation of ventricular premature beats (VPB) during drug administration (Male Sprague-Dawley rats; [2]): totally inhibited

SMILES: CCN(CC)CCOc1c(I)cc(C(=O)c2c(CC(=O)OC(C)C(C)C)oc3ccccc23)cc1I (stereo not shown) [ATI-2055]
metabolism in human plasma [1]: metabolized in human plasma by esterase enzymes | protection against adrenaline-induced tachyarrhythmia / tachycardia (heart rate) (Male Sprague-Dawley rats; comparison of the forms): inhibits the tachycardia

half-life in human plasma [1]: 8.8 h
SMILES: CCN(CC)CCOc1c(I)cc(C(=O)c2c(CC(=O)O[C@@H](C)C(C)C)oc3ccccc23)cc1I [Compound S-2055, (S)-(3-Methyl)-2butyl 2-[3-(3,5-diiodod-4-(2-diethylaminoethyloxy)benzoyl)]benzo-furaneacetate]
PR interval (Male Sprague-Dawley rats; anesthetized rats): shorter | QRS interval (Male Sprague-Dawley rats; anesthetized rats): longer | QT interval (Male Sprague-Dawley rats; anesthetized rats): no change | Heart rate (beats/minute) (Male Sprague-Dawley rats; anesthetized rats): lower | Inhibition of tachycardia (Male Sprague-Dawley rats; anesthetized rats): longer | Number of VPB (Male Sprague-Dawley rats; anesthetized rats): lower | Inhibition of VPB (Male Sprague-Dawley rats; anesthetized rats): longer | VPB-inhibiting activity at the end of the washout period (Male Sprague-Dawley rats): completely inactive

SMILES: CC[C@H](C)OC(=O)Cc1oc2ccccc2c1C(=O)c1cc(I)c(OCCN(CC)CC)c(I)c1 [ATI-2042]
metabolism in human plasma [1]: metabolized in human plasma by esterase enzymes | protection against adrenaline-induced tachyarrhythmia / tachycardia (heart rate) (Male Sprague-Dawley rats; comparison of the forms): very good protection

SMILES: CC[C@H](C)OC(=O)Cc1oc2ccccc2c1C(=O)c1cc(I)c(OCCN(CC)CC)c(I)c1 [R,S-2042]
anti-arrhythmic activity (VPB inhibition) of the racemate relative to the enantiomers (Male Sprague-Dawley rats; [2]): even less active than either the R- or the S-isomer | protection against adrenaline-induced tachyarrhythmia / tachycardia (heart rate) (Male Sprague-Dawley rats; comparison of the forms): least potent and shortest acting

SMILES: CC[C@@H](C)OC(=O)Cc1oc2ccccc2c1C(=O)c1cc(I)c(OCCN(CC)CC)c(I)c1 [Compound R-2042, (R)-sec-Butyl2-[3-(3,5-diiodo-4-(2-diethylaminoethyloxy)benzoyl)]benzofurane-acetate]
PR interval (Male Sprague-Dawley rats; anesthetized rats): shorter | QRS interval (Male Sprague-Dawley rats; anesthetized rats): no change | QT interval (Male Sprague-Dawley rats; anesthetized rats): no change | Heart rate (beats/minute) (Male Sprague-Dawley rats; anesthetized rats): lower | Inhibition of tachycardia (Male Sprague-Dawley rats; anesthetized rats): longer | Number of VPB (Male Sprague-Dawley rats; anesthetized rats): lower | Inhibition of VPB (Male Sprague-Dawley rats; anesthetized rats): longer | VPB-inhibiting activity at the end of the washout period (Male Sprague-Dawley rats): completely inactive
